In BigSolDB 2.1:

Compound `N#Cc1cccc([N+](=O)[O-])c1C#N` has a solubility (mole fraction) (in NMP, 278.15 K) of 0.0839, a solubility (mole fraction) (in NMP, 283.15 K) of 0.0936 and a solubility (mole fraction) (in NMP, 288.15 K) of 0.104. It also gave a solubility (mole fraction) (in NMP, 293.15 K) of 0.115, a solubility (mole fraction) (in NMP, 298.15 K) of 0.128 and a solubility (mole fraction) (in NMP, 303.15 K) of 0.141. For the same compound, the solubility (mole fraction) (in NMP, 308.15 K) was 0.155, the solubility (mole fraction) (in NMP, 313.15 K) was 0.17 and the solubility (mole fraction) (in NMP, 318.15 K) was 0.186. It also gave a solubility (mole fraction) (in NMP, 323.15 K) of 0.203, a solubility (mole fraction) (in acetone, 278.15 K) of 0.0204 and a solubility (mole fraction) (in acetone, 283.15 K) of 0.0242. For the same compound, the solubility (mole fraction) (in acetone, 288.15 K) was 0.0286, the solubility (mole fraction) (in acetone, 293.15 K) was 0.0338 and the solubility (mole fraction) (in acetone, 298.15 K) was 0.0399. For the same compound, the solubility (mole fraction) (in acetone, 303.15 K) was 0.0472, the solubility (mole fraction) (in acetone, 308.15 K) was 0.0558 and the solubility (mole fraction) (in acetone, 313.15 K) was 0.0661. It also gave a solubility (mole fraction) (in acetone, 318.15 K) of 0.0783, a solubility (mole fraction) (in acetone, 323.15 K) of 0.0929 and a solubility (mole fraction) (in ethanol, 278.15 K) of 0.000924. For the same compound, the solubility (mole fraction) (in ethanol, 283.15 K) was 0.00111, the solubility (mole fraction) (in ethanol, 288.15 K) was 0.00134 and the solubility (mole fraction) (in ethanol, 293.15 K) was 0.0016. It also gave a solubility (mole fraction) (in ethanol, 298.15 K) of 0.00194, a solubility (mole fraction) (in ethanol, 303.15 K) of 0.00232 and a solubility (mole fraction) (in ethanol, 308.15 K) of 0.00273. For the same compound, the solubility (mole fraction) (in ethanol, 313.15 K) was 0.00325, the solubility (mole fraction) (in ethanol, 318.15 K) was 0.00382 and the solubility (mole fraction) (in ethanol, 323.15 K) was 0.00448. It also gave a solubility (mole fraction) (in ethyl acetate, 278.15 K) of 0.0178, a solubility (mole fraction) (in ethyl acetate, 283.15 K) of 0.0208 and a solubility (mole fraction) (in ethyl acetate, 288.15 K) of 0.0242. The solubility (mole fraction) (in ethyl acetate, 293.15 K) was 0.0281, the solubility (mole fraction) (in ethyl acetate, 298.15 K) was 0.0324 and the solubility (mole fraction) (in ethyl acetate, 303.15 K) was 0.0372. For the same compound, the solubility (mole fraction) (in ethyl acetate, 308.15 K) was 0.0426, the solubility (mole fraction) (in ethyl acetate, 313.15 K) was 0.0487 and the solubility (mole fraction) (in ethyl acetate, 318.15 K) was 0.0555. The solubility (mole fraction) (in ethyl acetate, 323.15 K) was 0.063, the solubility (mole fraction) (in ethylene glycol, 278.15 K) was 0.0131 and the solubility (mole fraction) (in ethylene glycol, 283.15 K) was 0.0158. For the same compound, the solubility (mole fraction) (in ethylene glycol, 288.15 K) was 0.019, the solubility (mole fraction) (in ethylene glycol, 293.15 K) was 0.0226 and the solubility (mole fraction) (in ethylene glycol, 298.15 K) was 0.0268. It also gave a solubility (mole fraction) (in ethylene glycol, 303.15 K) of 0.0317, a solubility (mole fraction) (in ethylene glycol, 308.15 K) of 0.0373 and a solubility (mole fraction) (in ethylene glycol, 313.15 K) of 0.0438. The solubility (mole fraction) (in ethylene glycol, 318.15 K) was 0.0512, the solubility (mole fraction) (in ethylene glycol, 323.15 K) was 0.0596 and the solubility (mole fraction) (in isobutanol, 278.15 K) was 0.000381. For the same compound, the solubility (mole fraction) (in isobutanol, 283.15 K) was 0.000424, the solubility (mole fraction) (in isobutanol, 288.15 K) was 0.000477 and the solubility (mole fraction) (in isobutanol, 293.15 K) was 0.000552. The solubility (mole fraction) (in isobutanol, 298.15 K) was 0.000643, the solubility (mole fraction) (in isobutanol, 303.15 K) was 0.000765 and the solubility (mole fraction) (in isobutanol, 308.15 K) was 0.000921. For the same compound, the solubility (mole fraction) (in isobutanol, 313.15 K) was 0.00111, the solubility (mole fraction) (in isobutanol, 318.15 K) was 0.00135 and the solubility (mole fraction) (in isobutanol, 323.15 K) was 0.00169. The solubility (mole fraction) (in isopropanol, 278.15 K) was 0.000561, the solubility (mole fraction) (in isopropanol, 283.15 K) was 0.000681 and the solubility (mole fraction) (in isopropanol, 288.15 K) was 0.000837. It also gave a solubility (mole fraction) (in isopropanol, 293.15 K) of 0.00103, a solubility (mole fraction) (in isopropanol, 298.15 K) of 0.00125 and a solubility (mole fraction) (in isopropanol, 303.15 K) of 0.00151. The solubility (mole fraction) (in isopropanol, 308.15 K) was 0.00179, the solubility (mole fraction) (in isopropanol, 313.15 K) was 0.00216 and the solubility (mole fraction) (in isopropanol, 318.15 K) was 0.00257. For the same compound, the solubility (mole fraction) (in isopropanol, 323.15 K) was 0.00305, the solubility (mole fraction) (in methanol, 278.15 K) was 0.00203 and the solubility (mole fraction) (in methanol, 283.15 K) was 0.0024. For the same compound, the solubility (mole fraction) (in methanol, 288.15 K) was 0.00283, the solubility (mole fraction) (in methanol, 293.15 K) was 0.00332 and the solubility (mole fraction) (in methanol, 298.15 K) was 0.00388. The solubility (mole fraction) (in methanol, 303.15 K) was 0.00452, the solubility (mole fraction) (in methanol, 308.15 K) was 0.00523 and the solubility (mole fraction) (in methanol, 313.15 K) was 0.00597. For the same compound, the solubility (mole fraction) (in methanol, 318.15 K) was 0.00695, the solubility (mole fraction) (in methanol, 323.15 K) was 0.00796 and the solubility (mole fraction) (in n-butanol, 278.15 K) was 0.000411. The solubility (mole fraction) (in n-butanol, 283.15 K) was 0.000478, the solubility (mole fraction) (in n-butanol, 288.15 K) was 0.000569 and the solubility (mole fraction) (in n-butanol, 293.15 K) was 0.000686. For the same compound, the solubility (mole fraction) (in n-butanol, 298.15 K) was 0.000836, the solubility (mole fraction) (in n-butanol, 303.15 K) was 0.001 and the solubility (mole fraction) (in n-butanol, 308.15 K) was 0.0012. For the same compound, the solubility (mole fraction) (in n-butanol, 313.15 K) was 0.00143, the solubility (mole fraction) (in n-butanol, 318.15 K) was 0.00171 and the solubility (mole fraction) (in n-butanol, 323.15 K) was 0.00207. It also gave a solubility (mole fraction) (in n-propanol, 278.15 K) of 0.000735, a solubility (mole fraction) (in n-propanol, 283.15 K) of 0.000899 and a solubility (mole fraction) (in n-propanol, 288.15 K) of 0.00109. It also gave a solubility (mole fraction) (in n-propanol, 293.15 K) of 0.00132, a solubility (mole fraction) (in n-propanol, 298.15 K) of 0.00159 and a solubility (mole fraction) (in n-propanol, 303.15 K) of 0.00189. For the same compound, the solubility (mole fraction) (in n-propanol, 308.15 K) was 0.00226, the solubility (mole fraction) (in n-propanol, 313.15 K) was 0.00268 and the solubility (mole fraction) (in n-propanol, 318.15 K) was 0.00317. For the same compound, the solubility (mole fraction) (in n-propanol, 323.15 K) was 0.00373, the solubility (mole fraction) (in toluene, 278.15 K) was 0.000946 and the solubility (mole fraction) (in toluene, 283.15 K) was 0.00116. The solubility (mole fraction) (in toluene, 288.15 K) was 0.00142, the solubility (mole fraction) (in toluene, 293.15 K) was 0.00173 and the solubility (mole fraction) (in toluene, 298.15 K) was 0.0021. For the same compound, the solubility (mole fraction) (in toluene, 303.15 K) was 0.00254, the solubility (mole fraction) (in toluene, 308.15 K) was 0.00305 and the solubility (mole fraction) (in toluene, 313.15 K) was 0.00367. For the same compound, the solubility (mole fraction) (in toluene, 318.15 K) was 0.00437, the solubility (mole fraction) (in toluene, 323.15 K) was 0.00521 and the solubility (mole fraction) (in water, 278.15 K) was 5.32e-05. It also gave a solubility (mole fraction) (in water, 283.15 K) of 6.38e-05, a solubility (mole fraction) (in water, 288.15 K) of 7.98e-05 and a solubility (mole fraction) (in water, 293.15 K) of 9.78e-05. It also gave a solubility (mole fraction) (in water, 298.15 K) of 0.00012, a solubility (mole fraction) (in water, 303.15 K) of 0.000146 and a solubility (mole fraction) (in water, 308.15 K) of 0.000176. For the same compound, the solubility (mole fraction) (in water, 313.15 K) was 0.00021, the solubility (mole fraction) (in water, 318.15 K) was 0.00025 and the solubility (mole fraction) (in water, 323.15 K) was 0.000298.
